Assays:
[1] = Determination of the pKa of the cationic lipid in lipid nanoparticles by TNS fluorescence; type: physicochemical; settings: probe 2-(p-toluidine)-6-naphthalenesulfonic acid (TNS), 1 uM final, cationic lipid in LNP (cationic lipid/DSPC/cholesterol/PEG lipid 50/10/38/2 mol %), pH of half-maximal fluorescence
Procedure: (§1) Cationic lipids, DSPC, cholesterol, and PEG-lipids were dissolved in ethanol in molar ratios of 50:10:38:2 or 48:10:40:2. Lipid nanoparticles (LNPs) were prepared in a ratio of total lipid to mRNA by weight of about 10:1 to 30:1. Briefly, mRNA was diluted to 0.15 mg/ml in 10 to 50 ml of citrate buffer (pH=4). Using a syringe pump, an ethanolic solution of lipids was mixed with an aqueous mRNA solution in a ratio of approximately 1:5 to 1:3 by volume at a total flow rate of over 10 ml/min. Ethanol was then removed and the external buffer was replaced by dialysis-class PBS. Finally, the lipid nanoparticles were filtered through a sterile filter with a pore size of 0.2 um. The particle size of the lipid nanoparticles was approximately 65-105 nm in diameter and, in some cases, approximately 75-100 nm in diameter, determined by quasi-elastic light scattering using Malvern Zetasizer Nano ZS.
The pKa of the formulated cationic lipid correlates with the effectiveness of the LNP for nucleic acid delivery. The preferred pKa range is from 5 to 7. The pKa of each cationic lipid was determined in lipid nanoparticles using an analysis based on the fluorescence of 2-(p-toluidine)-6-naphthalenesulfonic acid (TNS). Lipid nanoparticles containing cationic lipids/DSPC/cholesterol/PEG lipids (50/10/38/2 mol %) at a concentration of 0.4 mM total lipid in PBS were prepared using an ordered method as described in Example 10. TNS was prepared as a 100 μM stock solution in distilled water. The vesicles were diluted to contain 24 uM lipid in a 2 mL buffer solution containing 10 mM HEPES, 10 mM MES, 10 mM acetic acid, and 130 mM NaCl, pH 2.5-11. Aliquots of 100 μM TNS stock solution were added to bring the final concentration to 1 uM. After vortex mixing, fluorescence intensity was measured in an SLM Aminco Series 2 luminescence spectrophotometer at room temperature using excitation and emission wavelengths of 321 nm and 445 nm. Fluorescence data were analyzed using a s-shaped curve fitting and pKa was determined by measuring the pH that produced half-maximal fluorescence intensity.

[2] = system: luciferase expression in the liver; assay: In vivo luciferase mRNA expression in liver after tail vein injection of FLuc mRNA lipid nanoparticles; design: species or system mice; settings: liver 5 hours after administration, LNP 50% cationic lipid/10% DSPC/38% cholesterol/2% PEG-DMG; for Liver Luc @ 0.3 mg/kg dose: 0.3 mg mRNA/kg; for Liver Luc @ 1.0 mg/kg dose: 1.0 mg mRNA/kg
Procedure: as §1
According to the guidelines set by the State Scientific and Technological Commission of The People's Republic of China, female C57BL/6 mice aged 6-8 weeks and CD-1 mice aged 8-10 weeks were used to perform the study. Various doses of mRNA lipid nanoparticles were administered by intravenous injection and the animals were euthanized at specific time points (e.g., 5 hours) post-administration. The liver and spleen were collected, weighed, immediately frozen in liquid nitrogen, and stored at −80° C. until being used for analysis.
For the liver, approximately 50 mg of liver tissue was cut and placed in 2 mL FastPrep tubes (MP Biomedicals, Solon OH) for analysis. ¼″ ceramic beads (MP Biomedicals) and 500 μL of room temperature Glo Lysis Buffer-GLB (Promega, Madison WI) were then added to each tube. The liver tissue was then homogenized for 15 seconds at a speed of 2×6.0 m/s using a FastPrep24 instrument (MP Biomedicals). The homogenates were incubated at room temperature for 5 minutes, then diluted with GLB in a ratio of 1:4, and finally evaluated using the SteadyGlo luciferase assay system (Promega). Specifically, 50 μL of diluted tissue homogenate was mixed with 50 μL of SteadyGlo substrate. The mixture was shaken for 10 seconds, then incubated at room temperature for 5 minutes, and subsequently quantified using a SpectraMAX_L chemiluminescent plate reader (Meigu Molecular Instrument (Shanghai) Co., Ltd.). The amount of protein was measured by using the BCA Protein Quantitation Kit (Shanghai Colorless Medical Technology Co., Ltd.). Relative luminescence units (RLU) were normalized to the total ug of the measured protein. To convert RLU into μg luciferase, a standard curve was generated using QuantiLum recombinant luciferase (Promega).
FLuc mRNA (L-6107) from Trilink Biotechnologies, which was originally isolated from fireflies (Photinus pyralis), will express luciferase protein. Fluc is commonly used in mammalian cell cultures to measure gene expression and cell viability. It emits biological light in the presence of the substrate luciferin. This capped and polyadenylated mRNA was completely replaced by 5-methylcytidine and pseudouridine.
For comparison purposes, these lipids were also used to formulate lipid nanoparticles containing FLuc mRNA (L-6107) using an ordered mixing method, as described in Example 10. Lipid nanoparticles were formulated with the following molar ratio: 50% cationic lipid/10% distearylphosphatidylcholine (DSPC)/38% cholesterol/2% PEG lipid (“PEG-DMG”, i.e., (1-(monomethoxy-polyethylene glycol)-2,3-dimyristoylglycerol, average PEG molecular weight 2000). As described in Example 10, relative activity was determined by measuring luciferase expression in the liver 5 hours after administration via tail vein injection. The activity was compared at doses of 0.3 and 1.0 mg mRNA/kg and expressed as ng luciferase/g liver measured 5 hours after administration as described in Example 10.

SMILES	pKa [1]	Liver Luc @ 0.3 mg/kg dose [2] [ng luciferase/g liver]	Liver Luc @ 1.0 mg/kg dose [2] [ng luciferase/g liver]
CCCCCCCCC(C)(CCCCCC)C(=O)OCCCCCCN(CCCCO)CCCCCCOC(=O)C(C)(CCCCCC)CCCCCCCC (stereo not drawn) [Compound 4]	6.12	1179 ± 362	8630 ± 824
CCCCCCCCC(C)(CCCCCC)C(=O)OCCCCCCN(CCCCO)CCCCCCOC(=O)C(CC)(CCCCCC)CCCCCCCC (stereo not drawn) [Compound 5]	5.89	1424 ± 289	10372 ± 2096
CCCCCCCCC(CC)(CCCCCC)C(=O)OCCCCCCN(CCCCO)CCCCCCOC(=O)C(CC)(CCCCCC)CCCCCCCC (stereo not drawn) [Compound 7]	6.08	1218 ± 359	8914 ± 1487
CCCCCCCCC(CC)(CCCCCC)C(=O)OCCCCCCN(CCCCO)CCCCCCOC(=O)C(CCC)(CCCCCC)CCCCCCCC (stereo not drawn) [Compound 8]	5.98	985 ± 625	7188 ± 942
CCCCCCCCC(CCCCCC)C(=O)OCCCCCCN(CCCCO)CCCCCCOC(=O)C(CC)(CCCCCC)CCCCCCCC (stereo not drawn) [Compound 2]	5.91	1469 ± 294	10671 ± 1912
CCCCCCCCC(CCC)(CCCCCC)C(=O)OCCCCCCN(CCCCO)CCCCCCOC(=O)C(CCC)(CCCCCC)CCCCCCCC (stereo not drawn) [Compound 9]	6.05	1138 ± 265	8443 ± 1045
CCCCCCCCC(C)(CCCCCC)C(=O)OCCCCCCN(CCCCO)CCCCCCOC(=O)C(CCC)(CCCCCC)CCCCCCCC (stereo not drawn) [Compound 6]	6.13	1628 ± 432	11753 ± 2598
CCCCCCCCC(CCCCCC)C(=O)OCCCCCCN(CCCCO)CCCCCCOC(=O)C(C)(CCCCCC)CCCCCCCC (stereo not drawn) [Compound 1]	6.25	1424 ± 265	10318 ± 1304
CCCCCCCCC(CCCCCC)C(=O)OCCCCCCN(CCCCO)CCCCCCOC(=O)C(CCC)(CCCCCC)CCCCCCCC (stereo not drawn) [Compound 3]	6.22	961 ± 469	6917 ± 642

— patent US12697376B2, “Cationic lipid compounds” (Guangzhou Anobri Pharmaceutical Co. Ltd., priority 2021, dated 2026)
